How the values were obtained:
[1] = system: BALBc mice; test: Inflammatory cytokines in treated ear tissue, ELISA (MEST); type: in vivo
Description: (§1) For the oxidative stress assessment, the level of malondialdehyde, a marker of lipid peroxidation, was measured from lysates of liver samples (in vivo) and cells-BJ and HepG2 (in vitro), using the Malondialdehyde Colorimetric Assay Kit (TBA Method) provided by ElabScience. Tissue sample homogenates (liver and ear) were prepared as previously described by David et al.. […] Inflammatory reaction was assessed by measurement of the tumor necrosis factor α (TNFα) in liver samples, using the rat TNFα ELISA kit from EIAAB. IL1α and β and IL6 measurement from the mice ear lysates were completed by ELISA, using the respective kits from Quantikine ELISA Immunoassay kit. Tissue homogenate samples were treated according to manufacturer’s instructions; readings were performed at 450 nm with correction wavelength set at 540 nm, using an ELISA plate reader (Tecan, Grödig, Austria).
(§2) On day one, under anesthesia, all mice received 30 µL/mouse of Freund’s complete adjuvant (Thermo Scientific™, Waltham, MA, USA), subcutaneously, in the right flank and the abdominal fur was carefully shaved, without skin abrasion. Then animals were treated with 100 µL of locally applied solution (abdominal skin) of each tested substance, in a concentration of 200 µg mL^−1 solved in ethanol 70%, daily for the first 6 days. The left ear thickness of each mouse was measured with an electronic caliper (initial value). Each mouse was treated with 50 µL/ear of the same solution on the left ear pinnae on day 7—challenge and on day 14—rechallenge. Ear thickness was measured at 24 h and 48 h after challenge and rechallenge, respectively. Then mice were humanely sacrificed, under anesthesia, and ears were collected for inflammatory markers (IL1α, IL1β and IL6) assessment and histopathology.

[2] = system: BALBc mice; test: Histopathology of ear sections (MEST); type: in vivo
Description: as §2
(§3) For histopathological examination, the collected samples (liver and ears) were fixed in 10% buffered neutral formalin, embedded in paraffin, cut at 4 micrometer thickness, and stained using the Hematoxylin–Eosin (H&E) method. The slides were examined under a BX51 Olympus microscope, and images were taken with an Olympus UC 30 digital camera (Olympus, Hamburg, Germany) and processed using the Olympus Stream Basic program.

[3] = system: humans; conditions: 75 subjects, 500 mg daily for one year; cited from earlier work
[4] = system: HepG2 hepatocarcinoma cells; test: Oxidative damage, malondialdehyde (MDA) in cell lysates, HepG2; type: cell-based, human; conditions: HepG2, 6 µM, 24 h, vs untreated controls
Description: as §1, with “Oxidative stress-induced damage was assessed in vitro by malondialdehyde (MDA) measurement from cell lysates. […] Cell lysates were then prepared as described. The concentration of 6 μM was chosen to mimic the clinical scenario [47]. […] For” for “For”, “manufacturer's” for “manufacturer’s”

[5] = system: HepG2 hepatocarcinoma cells; test: Cell viability, MTS assay, HepG2 hepatocarcinoma cells; type: cell-based, human; conditions: for cell viability (effect in words): HepG2, 24 h, Figure 4; for IC50: Homo sapiens, HepG2 hepatocarcinoma cells, 24 h exposure, range 0.01–100 µM, MTS
Description: (§4) Dermal fibroblasts (BJ-ATCC CRL-2522™) and hepatocarcinoma cells (HepG2-HB-8065, ATCC, Gaithersburg, MD, USA) were employed. Cell culture medium used was Dulbecco modified Eagle medium (DMEM) supplemented with 5% FCS-fetal calf serum, 50 µg mL^−1 gentamycin, and 5 ng mL^−1 amphotericin, all from Biochrom AG (Berlin, Germany). Medium was changed twice a week. For all experiments, a medium with 2% FCS was used. […] The final concentration of DMSO in the solutions added to the cells was lower than 0.05%, without negative viability effects. Viability was measured using the MTS assay CellTiter 96® AQueous Non-Radioactive Cell Proliferation Assay from (Promega Corporation, Madison, WI, USA), as indicated by the producer. […] Negative controls were treated with medium. Viability was measured through colorimetry, using an ELISA plate reader (Tecan, Männedorf, Switzerland) at 540 nm. All experiments were performed in triplicate. […] Inhibitory concentration (IC50) was calculated. The statistical difference between experimental groups was evaluated by nonparametric Kruskal–Wallis test, followed by Dunns post-test; the statistical significance of the treatments and time exposure within the experimental groups was tested using two-way ANOVA, followed by Bonferroni post-tests; results were considered significant for p < 0.05. […] Statistical package used for data analysis was Prism version 4.00 for Windows, GraphPad Software, San Diego, CA, USA, www.graphpad.com. For IC50 calculation of the cell viability in vitro, the AAT Bioquest was used.

[6] = system: Candida albicans; set-up: method as in PMID 1799950; conditions: ICR mice, systemic Candida albicans infections, intraperitoneal; cited from earlier work
[7] = system: BJ dermal fibroblasts; test: Cell viability, MTS assay, BJ dermal fibroblasts; type: cell-based, human; conditions: for cell viability (effect in words): BJ, 24 h, Figure 4; for IC50: Homo sapiens, Fibroblast, BJ dermal fibroblasts, 24 h exposure, range 0.01–100 µM, MTS
Description: as §4

[8] = system: BJ dermal fibroblasts; test: Oxidative damage, malondialdehyde (MDA) in cell lysates, BJ; type: cell-based, human; conditions: 6 µM, 24 h, vs untreated controls
Description: as §1, with “Oxidative stress-induced damage was assessed in vitro by malondialdehyde (MDA) measurement from cell lysates. […] Cell lysates were then prepared as described. The concentration of 6 μM was chosen to mimic the clinical scenario [47]. […] For” for “For”, “manufacturer's” for “manufacturer’s”

[9] = Wistar rats, one oral dose 20 mg kg^−1 bw
Description: (§5) Regarding HPLC-MS Quantification, serum samples were processed according to the modified protocol described by Wang et al. [99]. According to this protocol, 0.5 mL of serum was extracted into 3 mL of ethyl acetate by shaking for 3 min, after which the mixture was centrifuged for 8 min at 4000 rpm. The organic layer, after being transferred to a clean tube, was evaporated at 37 °C under a stream of nitrogen. The residue was resuspended in 100 μL acetonitrile and then analyzed using a LC2010 Shimadzu (Shimadzu, Kyoto, Japan) high-performance liquid chromatograph, equipped with diode array (DAD) and quadrupole mass spectrometer (MS) detectors.
(§6) Chromatographic separation was performed on a Grace Alltima C18 column (100 × 3 mm, 3 μm), at a temperature of 40 °C, using acetonitrile-water mixture 1:1 (V/V) with 0.1% formic acid as the mobile phase. The elution was carried out isocratically with 0.4 mL min^−1 flow rate. The injected sample volume was 10 μL. The mass spectrometer parameters were the capillary voltage of 1.5 kV, desolvation temperature of 250 °C, and interface temperature of 200 °C.

[10] = system: Wistar rats; test: Liver histopathology (HE stain); type: in vivo; conditions: oral 20 mg kg^−1 bw, 30 min, 24 h, 7 days
Description: Adult female Wistar rats, 3 months old (200 g body weight), were kept in standard cages type II, 5 animals/cage, in constant conditions of humidity (65%), temperature (21 °C), and day/night cycles of 12 h, fed with standard food (Cantacuzino Institute, Bucharest, Romania) and water ad libitum. […] […] Blood and liver samples were collected.
For the histopathological examination, the liver samples collected from the left lateral lobe and right medial lobe were fixed in 10% buffered neutral formalin, embedded in paraffin, cut at 4 µm thickness, and stained using the Hematoxylin–Eosin (H&E) staining method. The slides were examined under a BX51 Olympus microscope, and images were taken with an Olympus UC 30 digital camera (Olympus, Hamburg, Germany) and processed using the Olympus Stream Basic program.
as §3

[11] = set-up: method as in PMID 3767339; conditions: healthy humans, therapeutic oral dose of 200 mg KTZ; cited from earlier work
[12] = system: BALBc mice; conditions: mouse, in vivo
[13] = in vivo; conditions: female, Wistar, rat, po, 20 mg/kg
Description: as §5, §6

[14] = BALBc mice, ear collected at R48 h, ELISA, vs control
[15] = BALBc mice, after MEST, HE stain

Structure (SMILES)	IL1α in treated ear tissue [1, 14]	IL1β in treated ear tissue [1, 14]	IL6 in treated ear tissue [1, 14]	histology of ear pinna [2, 15]	malondialdehyde (MDA), marker for lipid peroxidation [4]	cell viability (effect in words) [5]	IC50 [5] [µM]	cell viability (effect in words) [7]	IC50 [7] [µM]	malondialdehyde (MDA), marker for lipid peroxidation [8]	also measured
O=[N+]([O-])c1ccc(Cl)c([N+](=O)[O-])c1 [DNCB, dinitrochlorobenzene]	significant increase	significant increase	significant increase	contact dermatitis							
O=C(O)/C=C/C(=O)O [FUM, trans-2-butenedioic acid]					slightly increased	minimal effect	3.19	minimal effect	7.26	smaller effect	adverse effects in humans [3]: no evidence of adverse effects; IL1α in treated ear tissue ([1]; mouse, in vivo): decreased; IL1β in treated ear tissue ([1]; mouse, in vivo): decreased; IL6 in treated ear tissue ([1]; mouse, in vivo): increased; histology of ear pinna ([2]; mouse, in vivo): No histological changes; survival of infected mice [6]: prolonged survival and prevented one-fifth of deaths
CC(=O)N1CCN(c2ccc(OCC3COC(Cn4ccnc4)(c4ccc(Cl)cc4Cl)O3)cc2)CC1 (stereo not drawn) [KTZ, cis-1-acetyl-4-[4-[[(2RS,4SR)-2-(2,4-dichlorophenyl)-2-(1H-imidazol-1-ylmethyl)-1,3-dioxolan-4-yl]methoxy]phenyl]piperazine]	decreased	decreased	increased	No histological changes	decreased	decreased	7.48	decreased	7.45	decreased	detection in plasma over time [9]: not detected after 6 h; liver histopathology [10]: normal hepatic architecture; plasma concentration [11]: 5.85 µM; epicutaneous sensitization, ear thickness [12]: did not induce any allergic reactions; AUC(0-t) [13]: 3820 ng·h/mL; Cmax ([13]; Cmax, Wistar rats, one oral dose 20 mg kg^−1 bw, serum): 5820 ± 700 ng/mL

From article PMC11678873, “Ketoconazole-Fumaric Acid Pharmaceutical Cocrystal: From Formulation Design for Bioavailability Improvement to Biocompatibility Testing and Antifungal Efficacy Evaluation” (International Journal of Molecular Sciences, 2024)
